Data published in patent US8088761B2, “Enzyme inhibitors” (Cancer Research Technology Limited, priority 2005, dated 2012).

How the values were obtained:
[1] = target: T1, Aurora-B (Homo sapiens, UniProt Q96GD4); experiment: Flashplate assay for Aurora-B inhibitors; format: biochemical; conditions: read-out: IC50 against Aurora-B
Protocol: (§1) On this assay 384-well Basic Flashplate® (SMP400E, PerkinElmer) as solid assay platform was used. The plates were coated overnight at 4° C. with […] at 100 μg/ml in PBS buffer and used after being washed twice with PBS. 5 μl of compound in 2% DMSO was added to each well followed by 15 μl master mix of kinase buffer (50 mM Tris pH 7.5, 10 mM NaCl, 2.5 mM MgCl2, 1 mM […], 20 μM ATP, and 0.025 μCi/μl ^33P-ATP). Finally, 250 ng per well of Aurora-A enzyme was added. The plate was shaken for approximately 2 min on a flat-bed plate shaker (Wellmix, Denley, UK) and incubated for 2 hours at room temperature. The reaction was stopped by washing the plate twice on a 16-pin wash (ELX50 BioTek Instruments Ltd., Northstar, Bedford, UK) with 10 mM sodium pyrophosphate. The plate was then read on a TopCount-NX™ (PerkinElmer Life Sciences UK Ltd., Hounslow, UK).
(§2) Flashplate® Assay for Identification and Evaluation of Aurora-B and Aurora-C Inhibitors
(§3) For the determination of the inhibitory activity against Aurora-B or Aurora-C, the same conditions were followed in the assay using Aurora-B or Aurora-C enzymes.

[2] = test system: HCT116 cells; experiment: Cell viability assay (MTT) in HCT116 cell line; format: cell-based; conditions: Homo sapiens, HCT-116, 72 hrs, IC50 range, read-out: HCT116 cell growth inhibition
In short: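 MTT read-out (4 hrs, 37 °C, DMSO extraction) following 72 hrs of treatment with 0-50 μM Aurora inhibitor. HCT116 cells were plated a day earlier and tested in triplicate; IC50 derived from the curve.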

[3] = target: T2, Aurora-A (Homo sapiens, UniProt O14965); experiment: Flashplate Aurora A enzyme inhibition assay; format: biochemical; conditions: Flashplate assay; IC50 range; read-out: Aurora-A inhibition
T2 sequence (O14965 1-403): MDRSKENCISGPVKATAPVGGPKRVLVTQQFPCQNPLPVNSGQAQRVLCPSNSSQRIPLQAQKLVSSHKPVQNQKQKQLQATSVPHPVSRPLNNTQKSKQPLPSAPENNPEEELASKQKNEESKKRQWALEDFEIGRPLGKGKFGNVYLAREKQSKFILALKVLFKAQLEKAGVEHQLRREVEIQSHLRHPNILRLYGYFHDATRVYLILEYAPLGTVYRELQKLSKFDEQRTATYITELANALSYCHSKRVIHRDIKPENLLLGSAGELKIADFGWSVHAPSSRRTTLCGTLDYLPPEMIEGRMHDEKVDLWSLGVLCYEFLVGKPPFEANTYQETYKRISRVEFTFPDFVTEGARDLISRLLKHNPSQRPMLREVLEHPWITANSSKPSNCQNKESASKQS
In short: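 This is a radiometric Flashplate format: plates were precoated with DTT, and compound (in 2% DMSO) was mixed with kinase buffer (pH 7.5 Tris, MgCl2, NaCl) containing 1 mM MBP, 20 μM ATP and ^33P-ATP. The reaction was started with 250 ng Aurora-A per well and incubated 2 h at RT. It was then stopped by 10 mM sodium pyrophosphate washing, and plates were scintillation-counted.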

[4] = target: T2, Aurora-A; experiment: Filterplate assay for Aurora-A inhibitors; format: biochemical; conditions: read-out: IC50 against Aurora-A
Protocol: Filterplate Assay for Identification and Evaluation of Aurora-A Inhibitors
(§4) 40 μl master mix of kinase buffer (50 mM Tris pH 7.5, 10 mM NaCl, 2.5 mM MgCL2, 1 mM DTT, 20 μM ATP, 0.025 μCi/μl ^33P-ATP, and 100 μg/ml MBP was added to a 96-well plate followed by addition of 250 ng of Aurora-A enzyme per well. The plate was shaken for approximately 2 min on a flat-bed plate shaker (Wellmix, Denley, UK) and incubated for 2 hours at room temperature. The reaction was stopped by the addition of 30 μl of 2% orthophosphoric acid. The reaction mixture was then transferred and filtered on the 96-well Multi-Screening Filter Plate (MATAH0P00, MILLIPORE), pre-treated with 50 μl per well of 0.5% orthophosphoric acid. The plate was washed twice with 200 μl of 0.5% orthophosphoric acid and vacuum-dried. 25 μl of scintillant (Microscint™20, PerkinElmer) per well was added and the plate was shaken for 10 min. Finally, the plate was re-sealed with TopSealA and the signal from the filter-bound component was read on TopCount-NXT™ (PerkinElmer Life Sciences UK Ltd., Hounslow, UK).

[5] = target: T3, Aurora-C (Homo sapiens, UniProt Q9UQB9); experiment: Flashplate assay for Aurora-C inhibitors; format: biochemical; conditions: read-out: IC50 against Aurora-C
T3 sequence (Q9UQB9 1-309): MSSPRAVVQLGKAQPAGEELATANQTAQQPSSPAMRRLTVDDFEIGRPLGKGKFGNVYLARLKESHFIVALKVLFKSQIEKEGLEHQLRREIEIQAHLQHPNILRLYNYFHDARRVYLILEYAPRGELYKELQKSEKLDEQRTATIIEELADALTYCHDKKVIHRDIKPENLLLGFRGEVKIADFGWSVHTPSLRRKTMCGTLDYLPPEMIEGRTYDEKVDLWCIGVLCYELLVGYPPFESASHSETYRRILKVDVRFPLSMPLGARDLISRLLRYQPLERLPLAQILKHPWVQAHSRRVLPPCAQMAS
Protocol: as §1, §2, §3

[6] = target: T3, Aurora-C; experiment: Filterplate assay for Aurora-C inhibitors; format: biochemical; conditions: read-out: IC50 range in respect of Aurora-C
Protocol: as §4
(§5) Filterplate Assay for Identification and Evaluation of Aurora-B and Aurora-C Inhibitors
as §3

[7] = target: T1, Aurora-B; experiment: Filterplate assay for Aurora-B inhibitors; format: biochemical; conditions: read-out: IC50 range in respect of Aurora-B
Protocol: as §4, §5, §3

T1 sequence (Q96GD4 whole entry): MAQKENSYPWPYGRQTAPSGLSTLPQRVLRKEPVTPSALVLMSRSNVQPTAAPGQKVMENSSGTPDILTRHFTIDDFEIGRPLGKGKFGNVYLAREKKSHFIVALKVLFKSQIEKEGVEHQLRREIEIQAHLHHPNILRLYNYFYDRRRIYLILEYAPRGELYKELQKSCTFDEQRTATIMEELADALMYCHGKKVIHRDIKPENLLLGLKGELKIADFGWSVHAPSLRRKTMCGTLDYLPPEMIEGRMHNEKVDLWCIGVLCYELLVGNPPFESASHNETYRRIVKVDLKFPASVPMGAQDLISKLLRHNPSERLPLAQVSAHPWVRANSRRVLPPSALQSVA

SMILES	IC50 [1] [nM]	IC50 [2] [nM]	IC50 [3] [nM]	IC50 [4] [nM]	IC50 [5] [nM]	IC50 [6] [nM]	IC50 [7] [nM]
Brc1cnc2[nH]c(-c3ccc(CN4CCOCC4)cc3)nc2c1N1CCN(Cc2cccnc2)CC1 [Example 65, 6-Bromo-2-(4-morpholin-4-ylmethyl-phenyl)-7-(4-pyridin-3-ylmethyl-piperazin-1-yl)-3H-imidazo[4,5-b]pyridine]		< 500	< 500			< 500	500 to 2000
Cc1cc(CN2CCN(c3c(Br)cnc4[nH]c(-c5ccc(CN6CCOCC6)cc5)nc34)CC2)no1 [Example 75, 6-Bromo-7-[4-(5-methyl-isoxazol-3-ylmethyl)-piperazin-1-yl]-2-(4-morpholin-4-ylmethyl-phenyl)-3H-imidazo[4,5-b]pyridine]		< 500	< 500			< 500	< 500
Cc1cc(CN2CCN(c3c(Br)cnc4[nH]c(-c5ccc(Cn6cccn6)cc5)nc34)CC2)no1 [Example 77, 6-Bromo-7-[4-(5-methyl-isoxazol-3-ylmethyl)-piperazin-1-yl]-2-(4-pyrazol-1-ylmethyl-phenyl)-3H-imidazo[4,5-b]pyridine]		< 500	< 500			< 500	< 500
Brc1cnc2[nH]c(-c3ccc(CN4CCNCC4)cc3)nc2c1N1CCN(Cc2cccnc2)CC1 [Example 106, 6-Bromo-2-(4-(piperazin-1-ylmethyl)phenyl)-7-(4-(pyridin-3-ylmethyl)piperazin-1-yl)-3H-imidazo[4,5-b]pyridine]		< 500	< 500			< 500	500 to 2000
Cc1nc(CN2CCN(c3c(Br)cnc4[nH]c(-c5ccc(Cn6cccn6)cc5)nc34)CC2)cs1 [Example 162, 4-((4-(2-(4-((1H-Pyrazol-1-yl)methyl)phenyl)-6-bromo-3H-imidazo[4,5-b]pyridin-7-yl)piperazin-1-yl)methyl)-2-methylthiazole]		< 500	< 500			< 500	500 to 2000
Cn1cncc1CN1CCN(c2c(Br)cnc3[nH]c(-c4ccc(Cn5cccn5)cc4)nc23)CC1 [Example 182, 2-(4-((1H-Pyrazol-1-yl)methyl)phenyl)-6-bromo-7-(4-((1-methyl-1H-imidazol-5-yl)methyl)piperazin-1-yl)-3H-imidazo[4,5-b]pyridine]		500 to 2000	< 500				

Other lines, results leading:

IC50 [1] [nM]	IC50 [2] [nM]	IC50 [3] [nM]	IC50 [4] [nM]	IC50 [5] [nM]	IC50 [6] [nM]	IC50 [7] [nM]	SMILES
110	< 500	< 500	80	362			CN(C)c1ccc(-c2nc3c(N4CCN(CC(=O)Nc5nccs5)CC4)c(Cl)cnc3[nH]2)cc1 [Example 1, 2-{4-[6-Chloro-2-(4-dimethylamino-phenyl)-3H-imidazo[4,5-b]pyridin-7-yl]-piperazin-1-yl}-N-thiazol-2-yl-acetamide]
410	< 500	< 500	70	530			CN(C)c1ccc(-c2nc3c(N4CCN(CC(=O)Nc5nccs5)CC4)c(Br)cnc3[nH]2)cc1 [Example 2, 2-{4-[6-Bromo-2-(4-dimethylamino-phenyl)-3H-imidazo[4,5-b]pyridin-7-yl]-piperazin-1-yl}-N-thiazol-2-yl-acetamide]
	< 500	< 500			< 500	< 500	Brc1cnc2[nH]c(-c3ccc(CN4CCOCC4)cc3)nc2c1N1CCN(Cc2cncnc2)CC1 [Example 122, 4-(4-(6-Bromo-7-(4-(pyrimidin-5-ylmethyl)piperazin-1-yl)-3H-imidazo[4,5-b]pyridin-2-yl)benzyl)morpholine]
	500 to 2000	< 500					O=C(CN1CCN(c2c(Cl)cnc3[nH]c(-c4ccc(OCCO)cc4)nc23)CC1)Nc1nccs1 [Example 183, 2-(4-(6-Chloro-2-(4-(2-hydroxyethoxy)phenyl)-3H-imidazo[4,5-b]pyridin-7-yl)piperazin-1-yl)-N-(thiazol-2-yl)acetamide]
	500 to 2000	< 500					O=C(CN1CCN(c2c(Cl)cnc3[nH]c(-c4ccc(N5CCC(O)CC5)cc4)nc23)CC1)Nc1nccs1 [Example 184, 2-(4-(6-Chloro-2-(4-(4-hydroxypiperidin-1-yl)phenyl)-3H-imidazo[4,5-b]pyridin-7-yl)piperazin-1-yl)-N-(thiazol-2-yl)acetamide]
	< 500	< 500					O=C(CN1CCN(c2c(Cl)cnc3[nH]c(-c4cccc(OCCN5CCOCC5)c4)nc23)CC1)Nc1nccs1 [Example 185, 2-(4-(6-Chloro-2-(3-(2-morpholinoethoxy)phenyl)-3H-imidazo[4,5-b]pyridin-7-yl)piperazin-1-yl)-N-(thiazol-2-yl)acetamide]
	< 500	< 500					CN(C)CCOc1ccc(-c2nc3c(N4CCN(CC(=O)Nc5nccs5)CC4)c(Cl)cnc3[nH]2)cc1 [Example 186, 2-(4-(6-Chloro-2-(4-(2-(dimethylamino)ethoxy)phenyl)-3H-imidazo[4,5-b]pyridin-7-yl)piperazin-1-yl)-N-(thiazol-2-yl)acetamide]
	500 to 2000	< 500					O=C(CN1CCN(c2c(Cl)cnc3[nH]c(-c4ccc(N5CCS(=O)(=O)CC5)cc4)nc23)CC1)Nc1nccs1 [Example 187, 2-(4-(6-Chloro-2-(4-(1,1-dioxothiomorpholino)phenyl)-3H-imidazo[4,5-b]pyridin-7-yl)piperazin-1-yl)-N-(thiazol-2-yl)acetamide]
